Test results from PubChem BioAssay (NCI).
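48-hour exposure; five concentrations; linearly interpolated endpoints. Here, GI50 denotes the concentration required for 50% inhibition of growth. At the TGI there is no net growth.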

Assays:
Test in all cases: NCI anticancer screen, dose series, 48 h; in the data active means GI50 below about 0.43 µM; inactive means the rest
MOLT-4 leukemia = test system: MOLT-4 leukemia
UACC-62 melanoma = test system: UACC-62 melanoma
LXFL 529 NSCLC = test system: LXFL 529 NSCLC
A549 NSCLC = test system: A549 NSCLC
SR leukemia = test system: SR leukemia
TK-10 renal = test system: TK-10 renal
UACC-257 melanoma = test system: UACC-257 melanoma
KM12 colon = test system: KM12 colon
CCRF-CEM leukemia = test system: CCRF-CEM leukemia
HCT-116 colon = test system: HCT-116 colon
SN12C renal = test system: SN12C renal
SK-MEL-2 melanoma = test system: SK-MEL-2 melanoma
LOX IMVI melanoma = test system: LOX IMVI melanoma
HOP-62 NSCLC = test system: HOP-62 NSCLC
NCI-H522 lung = test system: NCI-H522 lung
M14 melanoma = test system: M14 melanoma
NCI-H460 lung = test system: NCI-H460 lung
DLD-1 colon = test system: DLD-1 colon
HT29 colon = test system: HT29 colon
M19-MEL melanoma = test system: M19-MEL melanoma
HL-60(TB) leukemia = test system: HL-60(TB) leukemia
SW-620 colon = test system: SW-620 colon
EKVX NSCLC = test system: EKVX NSCLC
K-562 leukemia = test system: K-562 leukemia
OVCAR-3 ovarian = test system: OVCAR-3 ovarian
786-0 renal = test system: 786-0 renal
SK-OV-3 ovarian = test system: SK-OV-3 ovarian
ACHN renal = test system: ACHN renal
OVCAR-5 ovarian = test system: OVCAR-5 ovarian
SNB-78 CNS = test system: SNB-78 CNS
SNB-75 CNS = test system: SNB-75 CNS
OVCAR-8 ovarian = test system: OVCAR-8 ovarian
SF-539 CNS = test system: SF-539 CNS
MALME-3M melanoma = test system: MALME-3M melanoma
NCI-H23 lung = test system: NCI-H23 lung
HOP-18 NSCLC = test system: HOP-18 NSCLC
HCC-2998 colon = test system: HCC-2998 colon
U251 CNS = test system: U251 CNS
SF-295 CNS = test system: SF-295 CNS
SK-MEL-5 melanoma = test system: SK-MEL-5 melanoma
IGROV1 ovarian = test system: IGROV1 ovarian
KM20L2 colon = test system: KM20L2 colon
RXF 393 renal = test system: RXF 393 renal
HCT-15 colon = test system: HCT-15 colon
UO-31 renal = test system: UO-31 renal
SK-MEL-28 melanoma = test system: SK-MEL-28 melanoma
SNB-19 CNS = test system: SNB-19 CNS
SF-268 CNS = test system: SF-268 CNS
DMS 273 small cell lung = test system: DMS 273 small cell lung
OVCAR-4 ovarian = test system: OVCAR-4 ovarian
COLO 205 colon = test system: COLO 205 colon
A498 renal = test system: A498 renal
NCI-H226 lung = test system: NCI-H226 lung
RPMI-8226 leukemia = test system: RPMI-8226 leukemia
DMS 114 small cell lung = test system: DMS 114 small cell lung
HOP-92 NSCLC = test system: HOP-92 NSCLC
CAKI-1 renal = test system: CAKI-1 renal

COC1CC(OC)C2OC(c3ccccc3)OCC2O1 (centres undefined)
> 100 µM: TGI (MOLT-4 leukemia) | TGI (UACC-62 melanoma) | TGI (LXFL 529 NSCLC) | TGI (A549 NSCLC) | TGI (SR leukemia) | TGI (TK-10 renal) | TGI (UACC-257 melanoma) | TGI (KM12 colon) | TGI (CCRF-CEM leukemia) | TGI (HCT-116 colon) | TGI (SN12C renal) | TGI (SK-MEL-2 melanoma) | TGI (LOX IMVI melanoma) | TGI (HOP-62 NSCLC) | TGI (NCI-H522 lung) | TGI (M14 melanoma) | TGI (NCI-H460 lung) | TGI (DLD-1 colon) | TGI (HT29 colon) | TGI (M19-MEL melanoma) | TGI (HL-60(TB) leukemia) | TGI (SW-620 colon) | TGI (EKVX NSCLC) | TGI (K-562 leukemia) | TGI (OVCAR-3 ovarian) | TGI (786-0 renal) | TGI (SK-OV-3 ovarian) | TGI (ACHN renal) | TGI (OVCAR-5 ovarian) | TGI (SNB-78 CNS) | TGI (SNB-75 CNS) | TGI (OVCAR-8 ovarian) | TGI (SF-539 CNS) | TGI (MALME-3M melanoma) | TGI (NCI-H23 lung) | TGI (HOP-18 NSCLC) | TGI (HCC-2998 colon) | TGI (U251 CNS) | TGI (SF-295 CNS) | TGI (SK-MEL-5 melanoma) | TGI (IGROV1 ovarian) | TGI (KM20L2 colon) | TGI (RXF 393 renal) | TGI (HCT-15 colon) | TGI (UO-31 renal) | TGI (SK-MEL-28 melanoma)

CCOC(=O)[C@@]12C(C)=CC(=O)O[C@]1(C)C[C@H]2C#N
> 100 µM: TGI (MOLT-4 leukemia) | TGI (UACC-62 melanoma) | TGI (SNB-19 CNS) | TGI (LXFL 529 NSCLC) | TGI (A549 NSCLC) | TGI (TK-10 renal) | TGI (UACC-257 melanoma) | TGI (SF-268 CNS) | TGI (KM12 colon) | TGI (CCRF-CEM leukemia) | TGI (HCT-116 colon) | TGI (SN12C renal) | TGI (SK-MEL-2 melanoma) | TGI (LOX IMVI melanoma) | TGI (DMS 273 small cell lung) | TGI (OVCAR-4 ovarian) | TGI (HOP-62 NSCLC) | TGI (COLO 205 colon) | TGI (M14 melanoma) | TGI (NCI-H460 lung) | TGI (DLD-1 colon) | TGI (A498 renal) | TGI (HT29 colon) | TGI (M19-MEL melanoma) | TGI (HL-60(TB) leukemia) | TGI (NCI-H226 lung) | TGI (SW-620 colon) | TGI (RPMI-8226 leukemia) | TGI (EKVX NSCLC) | TGI (K-562 leukemia) | TGI (OVCAR-3 ovarian) | TGI (786-0 renal) | TGI (DMS 114 small cell lung) | TGI (SK-OV-3 ovarian) | TGI (HOP-92 NSCLC) | TGI (ACHN renal) | TGI (SNB-78 CNS) | TGI (SNB-75 CNS) | TGI (OVCAR-8 ovarian) | TGI (SF-539 CNS) | TGI (MALME-3M melanoma) | TGI (NCI-H23 lung) | TGI (HOP-18 NSCLC) | TGI (HCC-2998 colon) | TGI (U251 CNS) | TGI (SF-295 CNS) | TGI (SK-MEL-5 melanoma) | TGI (IGROV1 ovarian) | TGI (KM20L2 colon) | TGI (RXF 393 renal) | TGI (HCT-15 colon) | TGI (UO-31 renal) | TGI (SK-MEL-28 melanoma)

O=C1C(C(Nc2ccccc2)c2ccccc2)=C([O-])c2ccccc21.O=C1C(C(Nc2ccccc2)c2ccccc2)=C([O-])c2ccccc21.[Co+2] (centres undefined)
86 µM: TGI (TK-10 renal)
46.4 µM: TGI (UACC-257 melanoma)
> 100 µM: TGI (MOLT-4 leukemia) | TGI (UACC-62 melanoma) | TGI (SNB-19 CNS) | TGI (A549 NSCLC) | TGI (SR leukemia) | TGI (CCRF-CEM leukemia) | TGI (HCT-116 colon) | TGI (DMS 273 small cell lung) | TGI (HOP-62 NSCLC) | TGI (M14 melanoma) | TGI (DLD-1 colon) | TGI (A498 renal) | TGI (M19-MEL melanoma) | TGI (HL-60(TB) leukemia) | TGI (SW-620 colon) | TGI (RPMI-8226 leukemia) | TGI (K-562 leukemia) | TGI (786-0 renal) | TGI (HOP-92 NSCLC) | TGI (ACHN renal) | TGI (SNB-78 CNS) | TGI (CAKI-1 renal) | TGI (SF-539 CNS) | TGI (MALME-3M melanoma) | TGI (NCI-H23 lung) | TGI (HOP-18 NSCLC) | TGI (SK-MEL-5 melanoma) | TGI (IGROV1 ovarian) | TGI (SK-MEL-28 melanoma)
inactive: GI50 (MOLT-4 leukemia) 4.04 µM | GI50 (UACC-62 melanoma) 5.45 µM | GI50 (SNB-19 CNS) > 100 µM | GI50 (A549 NSCLC) 4.2 µM | GI50 (SR leukemia) 6.07 µM | GI50 (TK-10 renal) 5.48 µM | GI50 (UACC-257 melanoma) 5.04 µM | GI50 (CCRF-CEM leukemia) 4.96 µM | GI50 (HCT-116 colon) 3.15 µM | GI50 (DMS 273 small cell lung) 4.08 µM | GI50 (OVCAR-4 ovarian) 3.38 µM | GI50 (HOP-62 NSCLC) > 100 µM | GI50 (NCI-H522 lung) 2.31 µM | GI50 (M14 melanoma) 3.86 µM | GI50 (DLD-1 colon) 4.02 µM | GI50 (A498 renal) 5.13 µM | GI50 (M19-MEL melanoma) 15.2 µM | GI50 (HL-60(TB) leukemia) 3.72 µM | GI50 (SW-620 colon) 4.75 µM | GI50 (RPMI-8226 leukemia) 2.8 µM | GI50 (K-562 leukemia) 3.2 µM | GI50 (786-0 renal) 7.11 µM | GI50 (HOP-92 NSCLC) 6.92 µM | GI50 (ACHN renal) 6.62 µM | GI50 (SNB-78 CNS) > 100 µM | GI50 (CAKI-1 renal) 18.7 µM | GI50 (SNB-75 CNS) 4.49 µM | GI50 (SF-539 CNS) 3.3 µM | GI50 (MALME-3M melanoma) 5.48 µM | GI50 (NCI-H23 lung) 4.3 µM | GI50 (HOP-18 NSCLC) 11.5 µM | GI50 (SK-MEL-5 melanoma) 3.78 µM | GI50 (IGROV1 ovarian) 5.6 µM | GI50 (UO-31 renal) 2.69 µM | GI50 (SK-MEL-28 melanoma) 5.55 µM
5.43 µM: TGI (NCI-H522 lung)
53.8 µM: TGI (UO-31 renal)
9.92 µM: TGI (OVCAR-4 ovarian)
79.8 µM: TGI (SNB-75 CNS)
